Source: paper PMC10980263, “Cryo-EM structures of the human NaS1 and NaDC1 transporters revealed the elevator transport and allosteric regulation mechanism” (Science Advances, 2024)
Positions count from the first letter of the chain named.

How the values were obtained:
Type in all cases: binding
[1] = molecular target: T1, NaDC1 (Homo sapiens, UniProt Q13183, S140A); test: CD thermal melting at […] nm; conditions: absolute Tm in presence of citrate, not a shift
T1 construct: gene SLC13A2; full length, homodimer; N-terminal FLAG purified from HEK293F (structures, natural variant I550V); GFP and FLAG tagged in HEK293T for currents
T1 sequence (Q13183 1-592 S140A): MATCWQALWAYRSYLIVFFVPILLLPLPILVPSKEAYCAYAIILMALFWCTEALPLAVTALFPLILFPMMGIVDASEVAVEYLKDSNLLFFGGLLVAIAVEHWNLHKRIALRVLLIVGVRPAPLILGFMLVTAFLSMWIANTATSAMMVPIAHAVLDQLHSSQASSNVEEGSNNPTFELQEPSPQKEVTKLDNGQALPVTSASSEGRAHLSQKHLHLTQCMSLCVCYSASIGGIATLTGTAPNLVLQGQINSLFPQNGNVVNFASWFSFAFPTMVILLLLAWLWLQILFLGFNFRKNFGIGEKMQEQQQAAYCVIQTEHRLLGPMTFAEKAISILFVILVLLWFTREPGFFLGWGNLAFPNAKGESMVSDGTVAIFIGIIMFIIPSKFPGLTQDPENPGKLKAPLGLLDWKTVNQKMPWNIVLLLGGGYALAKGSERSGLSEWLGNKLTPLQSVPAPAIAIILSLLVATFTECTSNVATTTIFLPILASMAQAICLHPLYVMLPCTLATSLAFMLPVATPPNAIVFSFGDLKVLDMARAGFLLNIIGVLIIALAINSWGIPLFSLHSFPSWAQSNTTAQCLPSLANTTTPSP

[2] = molecular target: T2, NaDC1 (Homo sapiens, UniProt Q13183, I550V); test: cryo-EM structure ([…] Å); conditions: 10 mM sodium citrate; substrate site; Na+ at Na1 and Na2
T2 construct: gene SLC13A2; full length, homodimer; N-terminal FLAG purified from HEK293F (structures, natural variant I550V); GFP and FLAG tagged in HEK293T for currents
T2 sequence (Q13183 1-592 I550V): T1 sequence (Q13183 1-592 S140A) with A140S, I550V

[3] = molecular target: T3, NaDC1 (Homo sapiens, UniProt Q13183, T142A); test: CD thermal melting at […] nm; conditions: absolute Tm in presence of citrate, not a shift
T3 construct: gene SLC13A2; full length, homodimer; N-terminal FLAG purified from HEK293F (structures, natural variant I550V); GFP and FLAG tagged in HEK293T for currents
T3 sequence (Q13183 1-592 T142A): T1 sequence (Q13183 1-592 S140A) with A140S, T142A

[4] = molecular target: T4, NaDC1 (Homo sapiens, UniProt Q13183); test: CD thermal melting at […] nm; set-up: gene SLC13A2; full length, homodimer; N-terminal FLAG purified from HEK293F (structures, natural variant I550V); GFP and FLAG tagged in HEK293T for currents; conditions: absolute Tm in presence of citrate, not a shift; whether WT carries I550V not stated
T4 sequence (Q13183 1-592): T1 sequence (Q13183 1-592 S140A) with A140S

## O=C(O)CC(O)(CC(=O)O)C(=O)O [citrate]
[1]
  Tm: 57.1 ± 0.7 °C
[2]
  cryo-EM structure (2.7 Å): we discern two sodium ions and one citrate molecule distinctly situated within a single protomer
[3]
  Tm: 56.4 ± 0.3 °C
[4]
  Tm: 62.9 ± 0.3 °C
